Literature values as cited in patent publication US20200392379A1, “TRANSFER FILM, METHOD FOR MANUFACTURING LAMINATE, LAMINATE, CAPACITIVE INPUT DEVICE, AND IMAGE DISPLAY DEVICE” (FUJIFILM Corporation, priority 2018, published 2020).

pKa of conjugate acid | SMILES
1.17 | c1ccc2[nH]nnc2c1 [1,2,3-Benzotriazole]
−2.11 | Sc1nnc(S)s1 [1,3,4-Thiadiazole-2,5-dithiol]
0.09 | O=C(O)CC(C(=O)O)n1nnc2ccccc21 (centres unmarked) [1-(1′,2′-Dicarboxyethyl)benzotriazole]
1.21 | O=C(O)CC(Cn1nnc2ccccc21)C(=O)O (centres unmarked) [1-(2,3-Dicarboxypropyl)benzotriazole]
6.68 | CCCCC(CC)CN(CC(CC)CCCC)Cn1nnc2ccccc21 (centres unmarked) [1-[N,N-bis(2-ethylhexyl)aminomethyl]benzotriazole]
−1.32 | CSc1nnc(S)s1 [2-Mercapto-5-methylthio-1,3,4-thiadiazole]
2.99 | CSc1nc(N)n[nH]1 [3-Amino-5-methylthio-1H-1,2,4-triazole]
0.34 | Nc1cnns1 [5-Amino-1,2,3-thiadiazole]
3.02 | Nc1ccc2[nH]c(S)nc2c1 [5-Amino-2-mercaptobenzimidazole]
5.67 | c1ccc2[nH]cnc2c1 [Benzimidazole]

Second part, the molecule before the results:

SMILES | pKa of conjugate acid
Cn1nnnc1S [1-Methyl-5-mercaptotetrazole] | −2.98
Cc1cc(Cn2nnc3ccccc32)c(O)c(Cn2nnc3ccccc32)c1 [2,6-Bis[(1H-benzotriazol-1-yl)methyl]-4-methylphenol] | 1.49
CSc1nnc(N)s1 [2-Amino-5-methylthio-1,3,4-thiadiazole] | 2.12
Sc1nncs1 [2-Mercapto-1,3,4-thiadiazole] | −1.09
Sc1nc2ccccc2[nH]1 [2-Mercaptobenzimidazole] | 2.38
Cc1ncc[nH]1 [2-Methylimidazole] | 8.15
Sc1nc[nH]n1 [3-Mercapto-1,2,4-triazole] | 1.30
Nc1nnn[nH]1 [5-Amino-1H-tetrazole] | 1.29
Sc1nnnn1-c1ccccc1 [5-Mercapto-1-phenyl-1H-tetrazole] | −4.56
c1ccc(-c2nnn[nH]2)cc1 [5-Phenyl-1H-tetrazole] | −2.88
